Reference: paper PMC9934367, “Functional impact of subunit composition and compensation on Drosophila melanogaster nicotinic receptors–targets of neonicotinoids” (PLOS Genetics, 2023)

Tested on: D. melanogaster nAChRs
Test: Comparison of agonist activity between nAChRs expressed in X. laevis oocytes (one-way ANOVA, Kruskal-Wallis)
Assay type: cell-based
Experimental: We minimised the use of X. laevis according to the UK Animals (Scientific Procedures) Act, 1986. […] Oocytes were defolliculated after collagenase treatment in Ca^2+-free standard oocyte saline (Ca^2+-free SOS). cRNAs of the nAChR subunits and co-factors mixed at a concentration of 0.1 mg/mL was injected into oocytes at a volume of 50 nL. Then the oocytes were incubated in the incubation medium (SOS supplemented with sodium pyruvate (Nacalai Tesque, #13058–12), penicillin-streptomycin (MilliporeSigma, #P4333), gentamycin (Nacalai Tesque, #16672–04), and 4% horse serum (Thermo Fisher Scientific, #26050–070) for 3−4 days prior to electrophysiology.
Each defolliculated X. laevis oocyte was secured in a Perspex recording chamber and perfused with the standard oocyte saline (SOS) containing 0.5 μM atropine (SOSA) at a flow rate of 7−10 mL/min [48]. Two glass electrodes filled with 2 M KCl were impaled into each oocyte and the membrane potential was clamped at -100 mV. […] The peak amplitude of the response was measured and analysed by pCLAMP (Molecular Devices, USA).
Y=Imax/1+10^(logEC50‐X)nH
Where Y is the normalised response, X is log[ligand (M)], EC50 is the half maximal concentration (M), Imax is the maximum normalised response and nH is the Hill coefficient.
Prism software was employed for the statistical analyses. […] One-way ANOVA was used to analyse the differences of the ligand agonist activity in terms of pEC50 on the various nAChRs expressed in X. laevis as well as data obtained with D. melanogaster larvae and adults.

CC(=O)OCC[N+](C)(C)C [ACh, acetylcholine]
Difference of pEC50 values, nAChRs compared (Dα1/Dα2/Dα3/Dβ1/Dβ2 vs. Dα1/Dα2/Dβ1/Dβ2/Dβ3): 0.07
Difference of pEC50 values, nAChRs compared (Dα1/Dα2/Dα3/Dβ1/Dβ2 vs. Dα1/Dα3/Dα4/Dβ1/Dβ2): -0.30
Difference of pEC50 values, nAChRs compared (Dα1/Dα2/Dα3/Dβ1/Dβ2 vs. Dα1/Dα3/Dβ1/Dβ2/Dβ3): -1.34
Difference of pEC50 values, nAChRs compared (Dα1/Dα2/Dα3/Dβ1/Dβ2 vs. Dα2/Dα3/Dα4/Dβ1/Dβ2): -1.00
Difference of pEC50 values, nAChRs compared (Dα1/Dα2/Dα3/Dβ1/Dβ2 vs. Dα2/Dα3/Dβ1/Dβ2/Dβ3): -1.52
Difference of pEC50 values (Dα1/Dα2/Dα3/Dβ1 vs. Dα1/Dα2/Dα3/Dβ1/Dβ2): 0.94
Difference of pEC50 values (Dα1/Dα2/Dα3/Dβ1 vs. Dα1/Dα2/Dβ1/Dβ2): 0.51
Difference of pEC50 values (Dα1/Dα2/Dα3/Dβ1 vs. Dα1/Dα3/Dβ1/Dβ2): -1.00
Difference of pEC50 values (Dα1/Dα2/Dα3/Dβ1 vs. Dα1/Dβ1/Dβ2): 0.68
Difference of pEC50 values (Dα1/Dα2/Dα3/Dβ1 vs. Dα3/Dβ1/Dβ2): -0.76
Difference of pEC50 values (Dα1/Dα2/Dβ1/Dβ2 vs. Dα2/Dα3/Dβ1/Dβ2): -1.07
Difference of pEC50 values (Dα1/Dα2/Dβ1 vs. Dα1/Dα2/Dα3/Dβ1): -1.29
Difference of pEC50 values (Dα1/Dα2/Dβ1 vs. Dα1/Dα2/Dα3/Dβ1/Dβ2): -0.35
Difference of pEC50 values (Dα1/Dα2/Dβ1 vs. Dα1/Dα2/Dβ1/Dβ2): -0.78
Difference of pEC50 values (Dα1/Dα2/Dβ1 vs. Dα1/Dα3/Dβ1/Dβ2): -2.29
Difference of pEC50 values (Dα1/Dα2/Dβ1 vs. Dα2/Dα3/Dβ1): -1.31
Difference of pEC50 values (Dα1/Dα2/Dβ1 vs. Dα2/Dα3/Dβ1/Dβ2): -1.85
Difference of pEC50 values (Dα1/Dα2/Dβ1 vs. Dα3/Dβ1/Dβ2): -2.05
Difference of pEC50 values (Dα1/Dα3/Dβ1/Dβ2 vs. Dα1/Dα2/Dα3/Dβ1/Dβ2): 1.94
Difference of pEC50 values (Dα1/Dα3/Dβ1/Dβ2 vs. Dα1/Dα2/Dβ1/Dβ2): 1.51
Difference of pEC50 values (Dα1/Dα3/Dβ1 vs. Dα1/Dα2/Dα3/Dβ1/Dβ2): 1.36
Difference of pEC50 values (Dα1/Dα3/Dβ1 vs. Dα1/Dα2/Dβ1): 1.71
Difference of pEC50 values (Dα1/Dα3/Dβ1 vs. Dα1/Dα2/Dβ1/Dβ2): 0.93
Difference of pEC50 values (Dα1/Dα3/Dβ1 vs. Dα1/Dβ1/Dβ2): 1.10
Difference of pEC50 values (Dα1/Dα3/Dβ1 vs. Dα2/Dα3/Dβ1): 0.40
Difference of pEC50 values (Dα1/Dα3/Dβ1 vs. Dα3/Dβ1/Dβ2): -0.34
Difference of pEC50 values (Dα1/Dβ1/Dβ2 vs. Dα1/Dα2/Dα3/Dβ1/Dβ2): 0.26
Difference of pEC50 values (Dα1/Dβ1/Dβ2 vs. Dα1/Dα3/Dβ1/Dβ2): -1.68
Difference of pEC50 values (Dα1/Dβ1/Dβ2 vs. Dα2/Dα3/Dβ1/Dβ2): -1.24
Difference of pEC50 values (Dα1/Dβ1/Dβ2 vs. Dα3/Dβ1/Dβ2): -1.44
Difference of pEC50 values (Dα1/Dβ1 vs. Dα1/Dα2/Dα3/Dβ1/Dβ2): 0.75
Difference of pEC50 values (Dα1/Dβ1 vs. Dα1/Dα2/Dβ1): 1.10
Difference of pEC50 values (Dα1/Dβ1 vs. Dα1/Dα2/Dβ1/Dβ2): 0.32
Difference of pEC50 values (Dα1/Dβ1 vs. Dα1/Dα3/Dβ1/Dβ2): -1.19
Difference of pEC50 values (Dα1/Dβ1 vs. Dα1/Dβ1/Dβ2): 0.49
Difference of pEC50 values (Dα1/Dβ1 vs. Dα2/Dα3/Dβ1): -0.21
Difference of pEC50 values (Dα1/Dβ1 vs. Dα2/Dα3/Dβ1/Dβ2): -0.75
Difference of pEC50 values (Dα1/Dβ1 vs. Dα3/Dβ1): -0.90
Difference of pEC50 values (Dα1/Dβ1 vs. Dα3/Dβ1/Dβ2): -0.95
Difference of pEC50 values (Dα2/Dα3/Dβ1/Dβ2 vs. Dα1/Dα2/Dα3/Dβ1/Dβ2): 1.50
Difference of pEC50 values (Dα2/Dα3/Dβ1 vs. Dα1/Dα2/Dα3/Dβ1): 0.02
Difference of pEC50 values (Dα2/Dα3/Dβ1 vs. Dα1/Dα2/Dα3/Dβ1/Dβ2): 0.96
Difference of pEC50 values (Dα2/Dα3/Dβ1 vs. Dα1/Dα3/Dβ1/Dβ2): -0.98
Difference of pEC50 values (Dα2/Dα3/Dβ1 vs. Dα1/Dβ1/Dβ2): 0.70
Difference of pEC50 values (Dα2/Dα3/Dβ1 vs. Dα3/Dβ1/Dβ2): -0.74
Difference of pEC50 values (Dα3/Dβ1/Dβ2 vs. Dα1/Dα2/Dα3/Dβ1/Dβ2): 1.70
Difference of pEC50 values (Dα3/Dβ1/Dβ2 vs. Dα1/Dα2/Dβ1/Dβ2): 1.27
Difference of pEC50 values (Dα3/Dβ1/Dβ2 vs. Dα1/Dα3/Dβ1/Dβ2): -0.24
Difference of pEC50 values (Dα3/Dβ1/Dβ2 vs. Dα2/Dα3/Dβ1/Dβ2): 0.20
Difference of pEC50 values (Dα3/Dβ1 vs. Dα1/Dα2/Dα3/Dβ1): 0.71
Difference of pEC50 values (Dα3/Dβ1 vs. Dα1/Dα2/Dα3/Dβ1/Dβ2): 1.65
Difference of pEC50 values (Dα3/Dβ1 vs. Dα1/Dα2/Dβ1): 2.00
Difference of pEC50 values (Dα3/Dβ1 vs. Dα1/Dα2/Dβ1/Dβ2): 1.22
Difference of pEC50 values (Dα3/Dβ1 vs. Dα1/Dα3/Dβ1): 0.29
Difference of pEC50 values (Dα3/Dβ1 vs. Dα1/Dα3/Dβ1/Dβ2): -0.29
Difference of pEC50 values (Dα3/Dβ1 vs. Dα1/Dβ1/Dβ2): 1.39
Difference of pEC50 values (Dα3/Dβ1 vs. Dα2/Dα3/Dβ1): 0.69
Difference of pEC50 values (Dα3/Dβ1 vs. Dα3/Dβ1/Dβ2): -0.05
